This is an account of results in ChEMBL document CHEMBL4000148, “Design of novel dispirooxindolopyrrolidine and dispirooxindolopyrrolothiazole derivatives as potential antitubercular agents” (Bioorg Med Chem Lett, 2015).

Structures are written as SMILES. Converted amounts (≈) assume the structure as drawn. Bounds are passed on as bounds.

The subject of data set [1] is Mycobacterium tuberculosis. The experiment in a line: Antitubercular activity against Mycobacterium tuberculosis H37Rv ATCC 27294 after 28 days by agar dilution method. Format: functional. As to conditions: H37Rv ATCC 27294, 672 h. (In general: Agar dilution tests growth on a series of plates holding different concentrations.)
Data set [2] in a line: Cytotoxicity against mouse RAW264.7 cells assessed as inhibition of cell viability at 50 uM after 72 hrs by MTT assay relative to control. Format: cell-based. Conditions: read-out: INH.
In data set [3] the test system is Mycobacterium tuberculosis. Nature of the data set: Potency index, ratio of pyrazinamide MIC to compound MIC for Mycobacterium tuberculosis H37Rv ATCC 27294. The format is functional.
The test system of data set [4] is Mycobacterium tuberculosis. The experiment in a line: Potency index, ratio of ciprofloxacin MIC to compound MIC for Mycobacterium tuberculosis H37Rv ATCC 27294. Format: functional.

Regarding `Cc1ccc([C@@H]2[C@H]3CSCN3[C@]3(C(=O)Nc4ccccc43)[C@@]23C(=O)Oc2ccccc23)cc1`, the minimal inhibitory concentration (MIC) (in general, the smallest concentration in the dilution series that meets the test's criterion for growth inhibition) in data set [1] amounted to 12.5 µg/mL (≈ 27.5 µM).

Compound `O=C1Oc2ccccc2[C@@]12[C@H](c1ccccc1)[C@H]1CSCN1[C@]21C(=O)Nc2ccccc21` yielded an MIC in data set [1] of 25 µg/mL (≈ 56.8 µM).

Take `CSc1ccc([C@@H]2CN(C)[C@]3(C(=O)Nc4ccccc43)[C@@]23C(=O)Oc2ccccc23)cc1`: the cytotoxicity at 72 h, 50 µM in data set [2] worked out at 28.7%. In data set [1], this compound registered an MIC of 3.12 µg/mL (≈ 7.06 µM). `O=C1Oc2ccccc2[C@@]12[C@H](c1ccccc1)[C@H]1CSCN1[C@]21C(=O)Nc2ccc(Br)cc21` returned a minimum inhibitory concentration (MIC) in data set [1] of 25 µg/mL (≈ 48.1 µM).

Regarding `CN1C[C@@H](c2ccccc2)[C@]2(C(=O)Oc3ccccc32)[C@@]12C(=O)Nc1ccccc12`, the MIC in data set [1] came to 12.5 µg/mL (≈ 31.5 µM).

As to `COc1ccc([C@@H]2[C@H]3CSCN3[C@]3(C(=O)Nc4ccc([N+](=O)[O-])cc43)[C@@]23C(=O)Oc2ccccc23)cc1`, 25 µg/mL (≈ 48.5 µM) was the least that counted as inhibitory in data set [1] (MIC). As to `O=C1Oc2ccccc2[C@@]12[C@H](c1ccc([N+](=O)[O-])cc1)[C@H]1CSCN1[C@]21C(=O)Nc2ccccc21`, the cytotoxicity at 72 h, 50 µM in data set [2] worked out at 20.7%. The Ratio in data set [3] is 4; in data set [4], 2. Besides, it took 1.56 µg/mL (≈ 3.21 µM) to inhibit growth in data set [1] (MIC). In the case of `O=C1Oc2ccccc2[C@@]12[C@H](c1ccc(Cl)cc1)[C@H]1CSCN1[C@]21C(=O)Nc2ccc(Br)cc21`, the cytotoxicity at 72 h, 50 µM in data set [2] stood at 34.6%. Besides, 3.12 µg/mL (≈ 5.64 µM) was the least that counted as inhibitory in data set [1] (MIC). The like results for `CN1C[C@@H](c2ccc(Cl)cc2)[C@]2(C(=O)Oc3ccccc32)[C@@]12C(=O)Nc1ccccc12` were, in that order, 30.1% and 6.25 µg/mL (≈ 14.5 µM). With `CSc1ccc([C@@H]2[C@H]3CSCN3[C@]3(C(=O)Nc4ccc(Br)cc43)[C@@]23C(=O)Oc2ccccc23)cc1`, in data set [2], the cytotoxicity at 72 h, 50 µM was found to be 28.1%. Further, in data set [1], the minimum inhibitory concentration (MIC) amounted to 6.25 µg/mL (≈ 11.1 µM). On to `O=C1Oc2ccccc2[C@@]12[C@H](c1ccc([N+](=O)[O-])cc1)[C@H]1CSCN1[C@]21C(=O)Nc2ccc(Br)cc21`, for which the cytotoxicity at 72 h, 50 µM in data set [2] is 43.1%. For the same compound, 3.12 µg/mL (≈ 5.54 µM) was the least that counted as inhibitory in data set [1] (MIC). For `O=C1Oc2ccccc2[C@@]12[C@H](c1ccc(Br)cc1)[C@H]1CSCN1[C@]21C(=O)Nc2ccc(Br)cc21` the same measures were 32.4% and 3.12 µg/mL (≈ 5.22 µM). Consider `CSc1ccc([C@@H]2[C@H]3CSCN3[C@]3(C(=O)Nc4ccccc43)[C@@]23C(=O)Oc2ccccc23)cc1`, for which the MIC in data set [1] is 12.5 µg/mL (≈ 25.7 µM). Same read-out and setting: with `COc1ccc([C@@H]2CN(C)[C@]3(C(=O)Nc4ccccc43)[C@@]23C(=O)Oc2ccccc23)cc1` the figure was 12.5 µg/mL (≈ 29.3 µM); with `Cc1ccc([C@@H]2[C@H]3CSCN3[C@]3(C(=O)Nc4ccc(Br)cc43)[C@@]23C(=O)Oc2ccccc23)cc1`, 12.5 µg/mL (≈ 23.4 µM). On to `O=C1Oc2ccccc2[C@@]12[C@H](c1ccc(Br)cc1)[C@H]1CSCN1[C@]21C(=O)Nc2ccc([N+](=O)[O-])cc21`, for which it took 12.5 µg/mL (≈ 22.1 µM) to inhibit growth in data set [1] (MIC). `COc1ccc([C@@H]2[C@H]3CSCN3[C@]3(C(=O)Nc4ccccc43)[C@@]23C(=O)Oc2ccccc23)cc1`: the cytotoxicity at 72 h, 50 µM in data set [2] turned out to be 27.5%. For the same compound, the Ratio worked out at 4 in data set [3] and 2 in data set [4]. This compound registered a minimal inhibitory concentration (MIC) in data set [1] of 1.56 µg/mL (≈ 3.32 µM). Turning to `Cc1ccc([C@@H]2[C@H]3CSCN3[C@]3(C(=O)Nc4ccc([N+](=O)[O-])cc43)[C@@]23C(=O)Oc2ccccc23)cc1`, the MIC in data set [1] is over 25 µg/mL. `O=C1Oc2ccccc2[C@@]12[C@H](c1ccc(Br)cc1)[C@H]1CSCN1[C@]21C(=O)Nc2ccccc21`: the cytotoxicity at 72 h, 50 µM in data set [2] is 28.5%. In data set [1], this compound registered a minimal inhibitory concentration (MIC) of 3.12 µg/mL (≈ 6.02 µM). In data set [1], `CSc1ccc([C@@H]2[C@H]3CSCN3[C@]3(C(=O)Nc4ccc([N+](=O)[O-])cc43)[C@@]23C(=O)Oc2ccccc23)cc1` registered a minimal inhibitory concentration (MIC) of 12.5 µg/mL (≈ 23.5 µM). In the case of `O=C1Oc2ccccc2[C@@]12[C@H](c1ccc(Cl)cc1)[C@H]1CSCN1[C@]21C(=O)Nc2ccccc21`, the cytotoxicity at 72 h, 50 µM in data set [2] came out at 32.3%. In data set [1], this compound returned an MIC of 3.12 µg/mL (≈ 6.58 µM). For the compound `CN1C[C@@H](c2ccc([N+](=O)[O-])cc2)[C@]2(C(=O)Oc3ccccc32)[C@@]12C(=O)Nc1ccccc12`, in data set [2], the cytotoxicity at 72 h, 50 µM turned out to be 29.5%. This compound came in with a minimum inhibitory concentration (MIC) in data set [1] of 3.12 µg/mL (≈ 7.08 µM). In turn, `COc1ccc([C@@H]2[C@H]3CSCN3[C@]3(C(=O)Nc4ccc(Br)cc43)[C@@]23C(=O)Oc2ccccc23)cc1` yielded an MIC in data set [1] of 50 µg/mL (≈ 91 µM).

On to `O=C1Oc2ccccc2[C@@]12[C@H](c1ccc([N+](=O)[O-])cc1)[C@H]1CSCN1[C@]21C(=O)Nc2ccc([N+](=O)[O-])cc21`, for which, in data set [1], inhibition of growth (MIC) required 50 µg/mL (≈ 94.2 µM).

In the case of `O=C1Oc2ccccc2[C@@]12[C@H](c1ccccc1)[C@H]1CSCN1[C@]21C(=O)Nc2ccc([N+](=O)[O-])cc21`, in data set [2], the cytotoxicity at 72 h, 50 µM turned out to be 35.2%. The compound also returned an MIC in data set [1] of 3.12 µg/mL (≈ 6.44 µM).

Compound `O=C(O)c1cn(C2CC2)c2cc(N3CCNCC3)c(F)cc2c1=O` [CIPROFLOXACIN] gave a minimal inhibitory concentration (MIC) in data set [1] of 3.13 µg/mL (≈ 9.45 µM). As to `CC[C@@H](CO)NCCN[C@@H](CC)CO` [ETHAMBUTOL], 1.56 µg/mL (≈ 7.64 µM) was the least that counted as inhibitory in data set [1] (MIC). Same read-out and setting: the result for `NNC(=O)c1ccncc1` [ISONIAZID] reads 0.05 µg/mL (≈ 0.365 µM); that for `NC(=O)c1cnccn1` [PYRAZINAMIDE], 6.25 µg/mL (≈ 50.8 µM). Same read-out and setting: the result for `CO[C@H]1/C=C/O[C@@]2(C)Oc3c(C)c(O)c4c(O)c(c(/C=N/N5CCN(C)CC5)c(O)c4c3C2=O)NC(=O)/C(C)=C\C=C\[C@H](C)[C@H](O)[C@@H](C)[C@@H](O)[C@@H](C)[C@H](OC(C)=O)[C@@H]1C` [RIFAMPIN] reads 0.1 µg/mL (≈ 0.122 µM).
